Results: PubChem BioAssay AID256 (DTP/NCI, 2004)
Several values for one entry are separate records, joined by “and”; a condition that tells them apart may be missing. Identical values can stand only once. Inconclusive results and toxic doses are left out.

Test system: CD2F1 mice, L1210 leukemia ip, survival T/C
Assay: NCI In Vivo Anticancer Drug Screen. Data for tumor model L1210 Leukemia (intraperitoneal) in CD2F1 (CDF1) mice
Conditions: higher = longer survival
Method in brief: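 In this screen, transplantable tumors were grown in mice given either the compound or its vehicle. Results were expressed as the treated measurement relative to the control measurement.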

[1] = endpoint: mean survival time, dose: 100.0 mg/kg/injection, schedule: Q01DX009 (ip), vehicle: saline with Tween-80
[2] = endpoint: mean survival time, dose: 100.0 mg/kg/injection, schedule: Q04DX003 (ip), vehicle: saline with Tween-80
[3] = endpoint: mean survival time, dose: 200.0 mg/kg/injection, schedule: Q01DX009 (ip), vehicle: saline with Tween-80
[4] = endpoint: mean survival time, dose: 200.0 mg/kg/injection, schedule: Q04DX003 (ip), vehicle: saline with Tween-80
[5] = endpoint: mean survival time, dose: 100.0 mg/kg/injection, schedule: Q01DX001 (ip), vehicle: saline
[6] = endpoint: mean survival time, dose: 200.0 mg/kg/injection, schedule: Q01DX001 (ip), vehicle: saline
[7] = endpoint: mean survival time, dose: 400.0 mg/kg/injection, schedule: Q01DX001 (ip), vehicle: saline
[8] = endpoint: mean survival time, dose: 100.0 mg/kg/injection, schedule: Q04DX003 (ip), vehicle: saline
[9] = endpoint: mean survival time, dose: 100.0 mg/kg/injection, schedule: Q04DX002 (ip), vehicle: saline with Tween-80

For `O=C(O)/C=C/C(=O)Nc1cccc2ccccc12`, the T/C (endpoint: mean survival time, dose: 50.0 mg/kg/injection, schedule: Q01DX009 (ip), vehicle: saline with Tween-80) was 105 % of control, the T/C [1] was 100 % of control and the T/C [2] was 95 % of control. The T/C [3] was 89 % of control and the T/C [4] was 105 % of control.

For `N#Cc1cn(C2OC(CO)C(O)C2O)c2[nH]cnc(=S)c12` (centres undefined), the T/C [5] was 103 % of control, the T/C [6] was 108 % of control and the T/C [7] was 109 % of control.

`O=C(O)c1cc(-c2ccc(F)cc2)nc2ccc(F)cc12` was tested, and the T/C [2] was 101 % of control and the T/C [4] was 97 % of control.

`CC1CCC(c2cc(-c3ccccc3)n(-c3ccccc3)n2)CC1` (centres undefined) was tested, and the T/C (endpoint: mean survival time, dose: 100.0 mg/kg/injection, schedule: Q04DX003 (ip), vehicle: acetone) was 103 % of control, the T/C (endpoint: mean survival time, dose: 200.0 mg/kg/injection, schedule: Q04DX003 (ip), vehicle: acetone) was 101 % of control and the T/C (endpoint: mean survival time, dose: 400.0 mg/kg/injection, schedule: Q04DX003 (ip), vehicle: acetone) was 93 % of control.

With `O=C1SCCC1NP(=O)(Oc1ccccc1)Oc1ccccc1` (centres undefined) the T/C [1] was 93 % of control, the T/C [3] was 103 % of control and the T/C (endpoint: mean survival time, dose: 400.0 mg/kg/injection, schedule: Q01DX009 (ip), vehicle: saline with Tween-80) was 93 % of control.

With `CCCCCCCCC(O)CCC` (centres undefined) the T/C [8] was 96 % of control, the T/C (endpoint: mean survival time, dose: 200.0 mg/kg/injection, schedule: Q04DX003 (ip), vehicle: saline) was 98 % of control and the T/C (endpoint: mean survival time, dose: 400.0 mg/kg/injection, schedule: Q04DX003 (ip), vehicle: saline) was 100 % of control.

For `NC(Cc1cccc(NP(=S)(N2CC2)N2CC2)c1)C(=O)O` (centres undefined), the T/C (endpoint: mean survival time, dose: 100.0 mg/kg/injection, schedule: Q01DX009 (ip), vehicle: saline) was 119 % of control, the T/C [8] was 113 % of control and the T/C (endpoint: mean survival time, dose: 200.0 mg/kg/injection, schedule: Q01DX009 (ip), vehicle: saline) was 100 % of control.

`O=c1cc(-c2ccccc2)nc(N[N+](=O)[O-])[nH]1` was tested, and the T/C [2] was 100 % of control and the T/C [4] was 94 % of control.

`Cc1ccc(Cl)cc1NC(=O)OCC(C)C` was tested, and the T/C [9] was 90 % of control, the T/C (endpoint: mean survival time, dose: 200.0 mg/kg/injection, schedule: Q04DX002 (ip), vehicle: saline with Tween-80) was 93 % of control and the T/C (endpoint: mean survival time, dose: 400.0 mg/kg/injection, schedule: Q04DX002 (ip), vehicle: saline with Tween-80) was 90 % of control.

For `Nc1ccn(C2OC(C(OC3OC(CO)C(O)C(N)C3O)C(O)C(O)C(O)C(O)CO)C(N)C(O)C2O)c(=O)n1` (centres undefined), the T/C (endpoint: mean survival time, dose: 0.1 mg/kg/injection, schedule: Q01DX005 (ip), vehicle: saline) was 104 % of control, the T/C (endpoint: mean survival time, dose: 0.2 mg/kg/injection, schedule: Q01DX005 (ip), vehicle: saline) was 102 % of control and the T/C (endpoint: mean survival time, dose: 0.4 mg/kg/injection, schedule: Q01DX005 (ip), vehicle: saline) was 101 % of control.

In the case of `COc1cc(C=Nc2cc(Br)cc(Br)c2)ccc1N(CCCl)CCCl`, the T/C (endpoint: mean survival time, dose: 200.0 mg/kg/injection, schedule: Q01DX001 (ip), vehicle: other) is reported as 150 % of control.

For `O=C(O)c1ccccc1C(=O)c1cccc2ccccc12`, the T/C [2] was 104 % of control and the T/C [4] was 96 % of control.

`O=[N+]([O-])c1ccc(Cc2ncnc3c2ncn3C2OC(CO)C(O)C2O)cc1` (centres undefined) was tested, and the T/C (endpoint: mean survival time, dose: 12.5 mg/kg/injection, schedule: Q01DX005 (ip), vehicle: distilled water + Tween-80) was 103 % of control, the T/C (endpoint: mean survival time, dose: 25.0 mg/kg/injection, schedule: Q01DX005 (ip), vehicle: distilled water + Tween-80) was 105 % of control and the T/C (endpoint: mean survival time, dose: 50.0 mg/kg/injection, schedule: Q01DX005 (ip), vehicle: distilled water + Tween-80) was 108 % of control. For the same molecule, the T/C (endpoint: mean survival time, dose: 100.0 mg/kg/injection, schedule: Q01DX005 (ip), vehicle: distilled water + Tween-80) was 120 % of control and the T/C (endpoint: mean survival time, dose: 200.0 mg/kg/injection, schedule: Q01DX005 (ip), vehicle: distilled water + Tween-80) was 120 % of control.

In the case of `CCCCCCCCCCCCNC(=O)C[n+]1cccc(C(=O)Nc2ccccc2)c1`, the T/C (endpoint: mean survival time, dose: 6.25 mg/kg/injection, schedule: Q01DX009 (ip), vehicle: saline with Tween-80) is reported as 97 % of control, the T/C (endpoint: mean survival time, dose: 6.25 mg/kg/injection, schedule: Q04DX003 (ip), vehicle: saline with Tween-80) is reported as 106 % of control and the T/C (endpoint: mean survival time, dose: 12.5 mg/kg/injection, schedule: Q01DX009 (ip), vehicle: saline with Tween-80) is reported as 97 % of control. The T/C (endpoint: mean survival time, dose: 12.5 mg/kg/injection, schedule: Q04DX003 (ip), vehicle: saline with Tween-80) was 100 % of control and the T/C (endpoint: mean survival time, dose: 25.0 mg/kg/injection, schedule: Q04DX003 (ip), vehicle: saline with Tween-80) was 106 % of control.

`CC(C)(C[NH-])C[NH-].[Cl][Pt+2]([Cl])([Cl])[Cl]` was tested, and the T/C (endpoint: median survival time, dose: 0.2 mg/kg/injection, schedule: Q04DX003 (ip), vehicle: water) was 116 % of control and 111 % of control, the T/C (endpoint: median survival time, dose: 0.4 mg/kg/injection, schedule: Q04DX003 (ip), vehicle: water) was 116 % of control and 124 % of control and the T/C (endpoint: median survival time, dose: 1.6 mg/kg/injection, schedule: Q04DX003 (ip), vehicle: water) was 151 % of control and 186 % of control and 228 % of control. The T/C (endpoint: median survival time, dose: 3.12 mg/kg/injection, schedule: Q04DX003 (ip), vehicle: distilled water + Tween-80) was 123 % of control.

`Cc1cc(C)c2c(C#N)cn(-c3cccc(Cl)c3)c2n1` was tested, and the T/C [8] was 97 % of control.

With `NC(N)=NCCN=C(N)N` the T/C [5] was 105 % of control, the T/C [6] was 94 % of control and the T/C [7] was 100 % of control.

In the case of `CN=C1C=C/C(=N/N=c2/ccn(O)cc2C)C=C1C`, the T/C (endpoint: mean survival time, dose: 25.0 mg/kg/injection, schedule: Q04DX002 (ip), vehicle: saline with Tween-80) is reported as 106 % of control, the T/C (endpoint: mean survival time, dose: 50.0 mg/kg/injection, schedule: Q04DX002 (ip), vehicle: saline with Tween-80) is reported as 95 % of control and the T/C [9] is reported as 111 % of control.
